Patent publication US5039684A, “Tetrazole amide derivatives of heterocyclic alkenyl acid and their use as antiallergic substances” (Valeas S. p. A., priority 1989, dated 1991)

Columns and labels:
[1] = test system: passive cutaneous anaphylaxis; assay: PCA test on the rat, intravenous administration just before challenge with antigen; type: in vivo, rat (male Sprague Dawley); settings: Rattus norvegicus, iv; for ED50: read-out: ED50 (conf. lim) P = 0.05
Protocol: (§1) The serum, obtained from rats actively sensitized with ovalbumin (antigen) and suitably diluted, was injected intradermically into the shaven back of male Sprague Dawley rats (2 wheals per rat).
(§2) The rats were treated intravenously after 24 hours with a solution of ovalbumin and Evans blue. Thirty minutes later they were killed and the diameter and intensity of the blue ring formed at the site of the intradermic injection were measured.
(§3) For each treated group (5 per group) the % inhibition was then calculated with respect to the control group.
The pharmacological screening was effected by administering the compounds of the present invention intravenously and orally.
(§4) For intravenous administration (2 ml/kg), those compounds in which R1 =H (see formula I) were dissolved in an aqueous 1% NaHCO3 solution whereas for oral administration (4 ml/Kg) they were either suspended in 0.5% carboxymethylcellulose or dissolved in an aqueous 3% NaHCO3 solution.

[2] = test system: passive cutaneous anaphylaxis; assay: PCA test on the rat, oral administration before challenge with antigen; type: in vivo, rat (male Sprague Dawley); settings: for inhibition in vivo at 3 mg/kg / inhibition in vivo at 10 mg/kg / inhibition in vivo at 30 mg/kg / inhibition in vivo at 0.3 mg/kg / inhibition in vivo at 1 mg/kg / ED50: Rattus norvegicus, po; for inhibition in vivo at 3 mg/kg / inhibition in vivo at 10 mg/kg / inhibition in vivo at 30 mg/kg: read-out: inhibition (%); for ED50: 5 min, Table 2, oral administration, read-out: ED50 (conf. lim) P = 0.05; for ED50 OS/ED50 iv: oral 5 minutes before challenge / i.v. immediately before challenge
Protocol: The serum, obtained from rats actively sensitized with ovalbumin (antigen) and suitably diluted, was injected intradermically into the shaven back of male Sprague Dawley rats (2 wheals per rat). The rats were treated intravenously after 24 hours with a solution of ovalbumin and Evans blue. Thirty minutes later they were killed and the diameter and intensity of the blue ring formed at the site of the intradermic injection were measured. […] The pharmacological screening was effected by administering the compounds of the present invention intravenously and orally. For intravenous administration (2 ml/kg), those compounds in which R1 =H (see formula I) were dissolved in an aqueous 1% NaHCO3 solution whereas for oral administration (4 ml/Kg) they were either suspended in 0.5% carboxymethylcellulose or dissolved in an aqueous 3% NaHCO3 solution.

[3] = test system: passive cutaneous anaphylaxis; assay: PCA test on the rat, time response curve after oral administration; type: in vivo, rat (male Sprague Dawley); settings: Rattus norvegicus; for inhibition in vivo at 30 mg/kg: read-out: inhibition %; for inhibition in vivo at 1 mg/kg: 1 mg/kg/os; for inhibition in vivo at 3 mg/kg: 3 mg/kg/os
Protocol: as §1, §2, §3, §4

[4] = Acute toxicity in the mouse, oral administration; type: in vivo; settings: mouse, in vivo, po, 1000 mg/kg, oral, 1000 mg/kg/os; read-out: mortality (%EAD)
Protocol: (§5) Acute toxicity was evaluated in the mouse by administering the compounds orally at scalar doses to a maximum of 1000 mg/kg to evaluate the 50% lethal dose (LD50). The compounds were administered in carboxymethylcellulose (0.5%) in a volume of […] to male mice (Swiss stock) of average weight 20 g.

[5] = test system: mouse; assay: Acute toxicity in the mouse, oral administration; type: in vivo
Protocol: as §5

[6] = 1 mg/kg, immediately before challenge, read-out: inhibition (%)
[7] = 3 mg/kg, 5 minutes before challenge
[8] = 10 mg/kg, 5 minutes before challenge
[9] = 5 min, oral, 5 minutes before challenge
[10] = 0.25 h, oral, 15 minutes before challenge
[11] = 0.5 h, oral, 30 minutes before challenge
[12] = 1 h, oral, 60 minutes before challenge
[13] = 2 h, oral, 120 minutes before challenge

Compound | mortality [4] [%] | No. (dead) ([5]; oral, 1000 mg/kg/os, 8 treated) | inhibition in vivo at 1 mg/kg [1, 6] [%] | inhibition in vivo at 3 mg/kg ([1]; immediately before challenge) [%] | inhibition in vivo at 10 mg/kg ([1]; immediately before challenge) [%] | ED50 ([1]; immediately before challenge) [mg/kg] | inhibition in vivo at 0.3 mg/kg ([2]; 5 minutes before challenge) [%] | inhibition in vivo at 1 mg/kg ([2]; 5 minutes before challenge) [%] | inhibition in vivo at 3 mg/kg [2, 7] [%] | inhibition in vivo at 10 mg/kg [2, 8] [%] | ED50 ([2]; 5 minutes before challenge) [mg/kg] | ED50 OS/ED50 iv [2] | No. (dead) ([5]; mouse, in vivo, po, 1000 mg/kg) | further results
O=C(/C=C/c1ccnc2ccccc12)Nc1nn[nH]n1 [VAL 47-067, N-1H-TETRAZOL-5-YL-[3-(4-QUINOLYL)] […] ISOMER] | 12.5 | 1 | – | – | – | – | – | – | – | – | – | – | – | ED50 [1]: 0.35 mg/kg; inhibition in vivo at 0.1 mg/kg ([1]; read-out: inhibition (%)): 1.1%; inhibition in vivo at 0.3 mg/kg ([1]; read-out: inhibition (%)): 53.6%; inhibition in vivo at 1 mg/kg ([1]; read-out: inhibition (%)): 81.8%; inhibition in vivo at 3 mg/kg [2]: 8.3%; inhibition in vivo at 10 mg/kg [2]: 0%; inhibition in vivo at 30 mg/kg [2]: 16.7%; inhibition in vivo at 30 mg/kg ([3]; po, 5 min): 50.5%; inhibition in vivo at 30 mg/kg ([3]; po, 0.25 h): 29.3%; inhibition in vivo at 30 mg/kg ([3]; po, 0.5 h): 13.3%; inhibition in vivo at 30 mg/kg ([3]; po, 1 h): 0%; inhibition in vivo at 30 mg/kg ([3]; po, 2 h): 0%
Cc1ccc(/C=C/C(=O)Nc2nn[nH]n2)o1 [VAL 47-073, N-1H-tetrazol-5-yl-[3-[5-methyl-(2-furyl)]]-acrylamide trans isomer] | 0 | – | 3.4 | 50.7 | 95.1 | 3.13 | 22 | 44 | 87.5 | 89.3 | 0.92 | 0.29 | 0 | inhibition in vivo at 1 mg/kg [3, 9]: 52.6%; inhibition in vivo at 1 mg/kg [3, 10]: 7.8%; inhibition in vivo at 1 mg/kg [3, 11]: 19.8%; inhibition in vivo at 1 mg/kg [3, 12]: 0%; inhibition in vivo at 1 mg/kg [3, 13]: 0%; toxicity (in words) ([5]; oral, mouse): do not determine any toxic effect
Cc1ccc(/C=C\C(=O)Nc2nn[nH]n2)o1 [VAL 47-073cis, N-1H-tetrazol-5-yl-[3-[5-methyl-(2-furyl)]]-acrylamide cis isomer] | 12.5 | – | 6.6 | 25 | 69.4 | 5.76 | 25.1 | 42.6 | 67.2 | – | 1.26 | 0.22 | 1 | inhibition in vivo at 3 mg/kg [3, 9]: 50.8%; inhibition in vivo at 3 mg/kg [3, 10]: 66.4%; inhibition in vivo at 3 mg/kg [3, 11]: 17.3%; inhibition in vivo at 3 mg/kg [3, 12]: 5.8%; inhibition in vivo at 3 mg/kg [3, 13]: 0%
O=C(/C=C/c1ccc[nH]1)Nc1nn[nH]n1 [VAL 47-078, N-1H-tetrazol-5-yl-[3-(2-pyrrole)]-acrylamide trans isomer] | 0 | 0 | 11.2 | 41.3 | 78.6 | 3.85 | – | – | 7.4 | 35.8 | – | – | – | inhibition in vivo at 30 mg/kg ([2]; 30 mg/kg, 5 minutes before challenge): 38.3%; inhibition in vivo at 30 mg/kg ([3]; 5 min, oral, 30 mg/kg/os, 5 minutes before challenge): 31.4%; inhibition in vivo at 30 mg/kg ([3]; 0.25 h, oral, 30 mg/kg/os, 15 minutes before challenge): 29.3%; inhibition in vivo at 30 mg/kg ([3]; 0.5 h, oral, 30 mg/kg/os, 30 minutes before challenge): 9%; inhibition in vivo at 30 mg/kg ([3]; 1 h, oral, 30 mg/kg/os, 60 minutes before challenge): 4.3%; inhibition in vivo at 30 mg/kg ([3]; 2 h, oral, 30 mg/kg/os, 120 minutes before challenge): 0.5%
